Reference: patent US20110045101A1, “FUNGICIDAL SUBSTITUTED AZOLES” (E.I. Du Pont De Nemours and Company, priority 2009, published 2011)
Marks after values point to notes of the source that are not given here.

Columns and labels:
Type in all cases: in vivo
Details in all cases: 100 = 100% disease control, 0 = no control
[1] = tested on: Erysiphe graminis f. sp. tritici; experiment: Test J: wheat powdery mildew on wheat seedlings, sprayed the day before inoculation, visual disease rating
Method in brief: (§1)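 200 ppm run-off spray (500 g/ha equivalent); * = 40 ppm. Vehicle: acetone/water 50/50, 250 ppm Trem® 014.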

[2] = tested on: Puccinia recondita f. sp. tritici; experiment: Test I: wheat leaf rust on wheat seedlings, sprayed the day before inoculation, visual disease rating
Method in brief: as §1

[3] = tested on: Septoria nodorum; experiment: Test F: wheat glume blotch on wheat seedlings, sprayed the day before inoculation, visual disease rating
Method in brief: as §1

[4] = tested on: Alternaria solani; experiment: Test D: tomato early blight, sprayed the day before inoculation, visual disease rating
Method in brief: as §1

[5] = tested on: Botrytis cinerea; experiment: Test C: tomato Botrytis on tomato seedlings, sprayed the day before inoculation, visual disease rating
Method in brief: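 Tomato seedlings were sprayed until run-off with test suspensions in acetone/water (50/50) carrying 250 ppm polyhydric alcohol ester surfactant. Standard dose was 200 ppm, with 40 ppm for marked entries.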

[6] = tested on: Septoria tritici; experiment: Test G: wheat leaf blotch on wheat seedlings, sprayed the day before inoculation, visual disease rating
Method in brief: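 Spray to run-off, 200 ppm (≈500 g/ha; starred = 40 ppm), acetone/water 50/50 + 250 ppm Trem® 014. Spore inoculation +1 d. 24° C saturated 48 h → 20° C 19 d. Visual rating.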

Row | SMILES | Test J disease control rating ([1]; 200 ppm) [%] | Test I disease control rating ([2]; 200 ppm) [%] | Test F disease control rating ([3]; 200 ppm) [%] | Test D disease control rating ([4]; 200 ppm) [%] | Test C disease control rating ([5]; 200 ppm) [%] | Test G disease control rating ([6]; 200 ppm) [%] | Test J disease control rating ([1]; 40 ppm (marked *)) | Test I disease control rating ([2]; 40 ppm (marked *)) | Test F disease control rating ([3]; 40 ppm (marked *)) | Test D disease control rating ([4]; 40 ppm (marked *)) | Test C disease control rating ([5]; 40 ppm (marked *)) | Test G disease control rating ([6]; 40 ppm (marked *))
1 | Fc1ccc(-c2c(Cl)nc(Cl)n2-c2ccc(Cl)c(F)c2)c(Cl)c1 [compound 229] | 91 | 89 | 0 | 99 | 98 | 98 |  |  |  |  |  | 
2 | Fc1cc(-n2c(Cl)nc(Cl)c2-c2c(F)cccc2Cl)ccc1Cl [compound 230] | 99 | 94 | 0 | 97 | 99 | 99 |  |  |  |  |  | 
3 | CSc1ccc(F)c(-c2c(Cl)nc(Br)n2-c2ccc(Cl)cc2)c1F [compound 231] | 98 | 96 | 100 | 61 | 87 | 99 |  |  |  |  |  | 
4 | Fc1ccc(SCCl)c(F)c1-c1c(Cl)ncn1-c1ccc(Cl)cc1 [compound 232] | 0 | 9 | 0 | 0 | 0 | 95 |  |  |  |  |  | 
5 | Fc1cc(F)c(-n2c(Cl)nc(Br)c2-c2ccc(Cl)cc2)c(F)c1 [compound 233] |  |  |  |  |  |  | 94* % | 41* % | 0* % | 88* % | 96* % | 95* %
6 | Fc1ccc(F)c(-c2c(Cl)nc(Cl)n2-c2ccc(Cl)c(Cl)c2)c1F [compound 234] | 98 | 55 | 0 | 99 | 95 | 98 |  |  |  |  |  | 
7 | CSc1ccc(F)c(-c2c(Cl)nc(C)n2-c2ccc(Cl)cc2)c1F [compound 235] | 99 | 97 | 92 | 99 | 99 | 99 |  |  |  |  |  | 
8 | Cc1nc(Cl)c(-c2c(F)cccc2F)n1-c1cccc(Cl)c1 [compound 236] | 100 | 100 | 99 | 100 | 100 | 96 |  |  |  |  |  | 
9 | Cc1nc(Cl)c(-c2c(F)ccc(F)c2Cl)n1-c1ccc(Cl)c(F)c1 [compound 237] | 100 | 100 | 100 | 100 | 100 | 98 |  |  |  |  |  | 
10 | Cc1ccc(-n2c(C)nc(Cl)c2-c2c(F)ccc(F)c2F)cc1C [compound 238] | 100 | 96 | 0 | 99 | 99 | 93 |  |  |  |  |  | 
11 | COc1cc(F)c(-c2c(Cl)nc(Cl)n2-c2ccc(Cl)cc2)c(F)c1 [compound 239] | 100 | 99 | 100 | 100 | 100 | 96 |  |  |  |  |  | 
12 | COc1cc(F)c(-c2c(Cl)nc(Cl)n2-c2ccc(Cl)c(F)c2)c(F)c1 [compound 240] | 100 | 100 | 100 | 100 | 100 | 97 |  |  |  |  |  | 
13 | COc1cc(F)c(-c2c(Cl)nc(I)n2-c2ccc(Cl)c(F)c2)c(F)c1 [compound 241] | 93 | 96 | 100 | 100 | 100 | 96 |  |  |  |  |  | 
14 | COc1cc(F)c(-n2c(Br)nc(Br)c2-c2ccc(Cl)cc2)c(F)c1 [compound 242] |  |  |  |  |  |  | 92* % | 89* % | 51* % | 95* % | 99* % | 95* %
15 | Cc1nc(Cl)c(-c2ccc(F)cc2Cl)n1-c1ccc(Cl)c(F)c1 [compound 243] | 98 | 100 | 98 | 100 | 99 | 99 |  |  |  |  |  | 
16 | Cc1nc(Cl)c(-c2c(F)cccc2Cl)n1-c1ccc(Cl)c(F)c1 [compound 244] | 100 | 99 | 99 | 100 | 100 | 96 |  |  |  |  |  | 
17 | COc1cc(F)c(-c2c(Cl)nc(I)n2-c2ccc(Cl)cc2)c(F)c1 [compound 245] | 99 | 95 | 100 | 99 | 100 | 97 |  |  |  |  |  | 
18 | Cc1nc(Cl)c(-c2c(F)cccc2F)n1-c1ccc(Cl)c(F)c1 [compound 247] | 100 | 100 | 100 | 100 | 100 | 97 |  |  |  |  |  | 
19 | COc1cc(F)c(-n2c(C)nc(C)c2-c2ccc(Cl)cc2)c(F)c1 [compound 249] |  |  |  |  |  |  | 81* % | 74* % | 73* % | 99* % | 100* % | 93* %
20 | COc1cc(F)c(-c2c(C)ncn2-c2ccccn2)c(F)c1 [compound 250] | 94 | 99 | 0 | 100 | 99 | 83 |  |  |  |  |  | 
21 | Cc1ncn(-c2ccc(Cl)c(F)c2)c1-c1ccccn1 [compound 251] | 0 | 9 | 0 | 0 | 99 | 81 |  |  |  |  |  | 
22 | Cc1ncn(-c2ccc(Cl)c(F)c2)c1-c1cccnc1 [compound 252] | 0 | 0 | 0 | 0 | 15 | 13 |  |  |  |  |  | 
23 | Cc1ncn(-c2ccc(Cl)c(F)c2)c1-c1ccncc1 [compound 253] | 0 | 74 | 0 | 0 | 94 | 91 |  |  |  |  |  | 
